From the SangsterLogP compilation

Row | Structure (SMILES) | logP
1 | CNC=C1c2cccc(O)c2C(=O)c2c(O)cccc21 | 3.55
2 | COc1ccc(NC=C2c3cccc(O)c3C(=O)c3c(O)cccc32)cc1 | 4.9
3 | O=C1c2c(O)cccc2C(=CNc2ccc([N+](=O)[O-])cc2)c2cccc(O)c21 | 4.7
4 | COc1ccc(NC=C2c3cccc(O)c3C(=O)c3c(O)cccc32)cc1OC | 4.37
5 | O=C1c2c(O)cccc2C(=CNc2ccc(F)cc2)c2cccc(O)c21 | 4.64
6 | O=C1c2c(O)cccc2C(=CNc2ccc(Br)cc2)c2cccc(O)c21 | 5.19
7 | CN(C=C1c2cccc(O)c2C(=O)c2c(O)cccc21)c1ccccc1 | 5.07
8 | O=C1c2c(O)cccc2C(=CNCc2ccccc2)c2cccc(O)c21 | 4.23
9 | O=C1c2c(O)cccc2C(=CNc2ccccc2)c2cccc(O)c21 | 4.96
10 | O=C1c2c(O)cccc2C(=CNc2ccc(Cl)cc2)c2cccc(O)c21 | 5.06
11 | COc1ccccc1NC=C1c2cccc(O)c2C(=O)c2c(O)cccc21 | 4.37
12 | O=C1c2c(O)cccc2C(=CNc2ccc(O)cc2)c2cccc(O)c21 | 4.01
13 | O=C1c2c(O)cccc2C(=CNc2ccc3c(c2)OCO3)c2cccc(O)c21 | 4.74
